Experimental findings from US10308639B2, “Phosphatidylinositol 3-kinase inhibitors” (Gilead Sciences, Inc., priority 2014, dated 2019) are described below.

Assay type in all cases: biochemical
One assay addresses T1, PI3Kβ (Homo sapiens, UniProt P42338).
T1 construct: made in house
Description: TR-FRET enzymatic activity assay, PI3Kβ. To be noted: Table 2; TR-FRET, 2x Km ATP, 30 minutes at 25° C.

A further assay deals with T2, PI3Kδ (Homo sapiens, UniProt O00329).
T2 construct: made in house
Description: TR-FRET enzymatic activity assay, PI3Kδ. The note with it: Table 2; TR-FRET, 2x Km ATP, 30 minutes at 25° C. (Time-resolved FRET reads energy transfer from a long-lived donor to a nearby acceptor.)

The target of a further assay is T3, PI3Kγ (Homo sapiens, UniProt P48736).
T3 construct: made in house
Kind of assay: TR-FRET enzymatic activity assay, PI3Kγ. To be noted: read-out: PI3Kγ IC50. The method, then:
The compounds of formula (I) were characterized for their enzymatic activity against the PI3K isoforms. The activities were measured using a time-resolved fluorescence resonance energy transfer (TR-FRET) assay.

Setting [1] is: Table 2, TR-FRET, 2x Km ATP, 30 minutes at 25° C.

SMILES strings stand for the structures. Where two headings read alike, the source gives them in different places.

T2 sequence (O00329 whole entry): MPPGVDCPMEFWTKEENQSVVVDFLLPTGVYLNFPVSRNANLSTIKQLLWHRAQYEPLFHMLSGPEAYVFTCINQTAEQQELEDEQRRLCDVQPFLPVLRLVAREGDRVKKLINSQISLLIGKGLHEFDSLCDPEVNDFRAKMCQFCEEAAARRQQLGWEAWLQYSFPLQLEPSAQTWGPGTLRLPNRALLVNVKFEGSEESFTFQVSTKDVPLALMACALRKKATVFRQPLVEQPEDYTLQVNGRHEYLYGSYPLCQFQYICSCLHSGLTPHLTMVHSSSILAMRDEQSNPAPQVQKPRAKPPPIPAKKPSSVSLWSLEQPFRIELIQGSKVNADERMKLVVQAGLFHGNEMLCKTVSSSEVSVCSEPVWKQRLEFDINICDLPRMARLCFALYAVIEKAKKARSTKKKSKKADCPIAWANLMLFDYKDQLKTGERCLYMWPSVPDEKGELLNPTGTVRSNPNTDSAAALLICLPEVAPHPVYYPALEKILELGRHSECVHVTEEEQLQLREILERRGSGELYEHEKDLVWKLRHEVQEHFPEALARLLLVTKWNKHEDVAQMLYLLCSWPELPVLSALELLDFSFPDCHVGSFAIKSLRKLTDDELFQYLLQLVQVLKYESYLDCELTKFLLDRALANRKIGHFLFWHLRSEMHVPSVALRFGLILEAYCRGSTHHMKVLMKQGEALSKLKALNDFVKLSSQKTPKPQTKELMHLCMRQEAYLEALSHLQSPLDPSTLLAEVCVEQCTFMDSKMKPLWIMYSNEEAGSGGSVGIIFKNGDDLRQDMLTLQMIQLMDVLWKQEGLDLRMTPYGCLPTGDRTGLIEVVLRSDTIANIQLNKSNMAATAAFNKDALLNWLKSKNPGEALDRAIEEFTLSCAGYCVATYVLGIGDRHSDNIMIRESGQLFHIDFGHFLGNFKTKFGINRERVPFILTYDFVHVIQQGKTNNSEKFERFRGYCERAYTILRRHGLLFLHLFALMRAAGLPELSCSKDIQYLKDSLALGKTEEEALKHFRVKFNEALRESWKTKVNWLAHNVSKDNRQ
T2 sequence (P27986 whole entry partner): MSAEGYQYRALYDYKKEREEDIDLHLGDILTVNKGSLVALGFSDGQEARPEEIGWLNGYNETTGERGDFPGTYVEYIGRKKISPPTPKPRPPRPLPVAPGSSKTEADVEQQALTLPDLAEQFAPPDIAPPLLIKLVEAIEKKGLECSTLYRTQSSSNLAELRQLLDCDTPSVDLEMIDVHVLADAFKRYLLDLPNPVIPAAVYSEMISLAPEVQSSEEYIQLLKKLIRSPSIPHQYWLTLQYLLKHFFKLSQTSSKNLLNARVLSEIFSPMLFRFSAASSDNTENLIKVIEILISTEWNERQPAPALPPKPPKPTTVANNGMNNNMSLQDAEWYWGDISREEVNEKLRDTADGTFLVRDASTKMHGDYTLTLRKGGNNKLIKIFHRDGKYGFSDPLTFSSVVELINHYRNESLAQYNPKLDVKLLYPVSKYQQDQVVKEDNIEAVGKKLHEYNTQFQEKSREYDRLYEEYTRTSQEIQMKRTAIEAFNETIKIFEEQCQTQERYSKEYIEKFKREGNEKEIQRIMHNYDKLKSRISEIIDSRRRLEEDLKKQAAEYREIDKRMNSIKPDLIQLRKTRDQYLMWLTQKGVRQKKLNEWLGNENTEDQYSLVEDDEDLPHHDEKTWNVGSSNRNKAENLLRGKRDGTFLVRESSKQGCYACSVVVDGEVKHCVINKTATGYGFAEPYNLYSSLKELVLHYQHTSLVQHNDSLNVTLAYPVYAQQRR
T1 sequence (P42338 whole entry): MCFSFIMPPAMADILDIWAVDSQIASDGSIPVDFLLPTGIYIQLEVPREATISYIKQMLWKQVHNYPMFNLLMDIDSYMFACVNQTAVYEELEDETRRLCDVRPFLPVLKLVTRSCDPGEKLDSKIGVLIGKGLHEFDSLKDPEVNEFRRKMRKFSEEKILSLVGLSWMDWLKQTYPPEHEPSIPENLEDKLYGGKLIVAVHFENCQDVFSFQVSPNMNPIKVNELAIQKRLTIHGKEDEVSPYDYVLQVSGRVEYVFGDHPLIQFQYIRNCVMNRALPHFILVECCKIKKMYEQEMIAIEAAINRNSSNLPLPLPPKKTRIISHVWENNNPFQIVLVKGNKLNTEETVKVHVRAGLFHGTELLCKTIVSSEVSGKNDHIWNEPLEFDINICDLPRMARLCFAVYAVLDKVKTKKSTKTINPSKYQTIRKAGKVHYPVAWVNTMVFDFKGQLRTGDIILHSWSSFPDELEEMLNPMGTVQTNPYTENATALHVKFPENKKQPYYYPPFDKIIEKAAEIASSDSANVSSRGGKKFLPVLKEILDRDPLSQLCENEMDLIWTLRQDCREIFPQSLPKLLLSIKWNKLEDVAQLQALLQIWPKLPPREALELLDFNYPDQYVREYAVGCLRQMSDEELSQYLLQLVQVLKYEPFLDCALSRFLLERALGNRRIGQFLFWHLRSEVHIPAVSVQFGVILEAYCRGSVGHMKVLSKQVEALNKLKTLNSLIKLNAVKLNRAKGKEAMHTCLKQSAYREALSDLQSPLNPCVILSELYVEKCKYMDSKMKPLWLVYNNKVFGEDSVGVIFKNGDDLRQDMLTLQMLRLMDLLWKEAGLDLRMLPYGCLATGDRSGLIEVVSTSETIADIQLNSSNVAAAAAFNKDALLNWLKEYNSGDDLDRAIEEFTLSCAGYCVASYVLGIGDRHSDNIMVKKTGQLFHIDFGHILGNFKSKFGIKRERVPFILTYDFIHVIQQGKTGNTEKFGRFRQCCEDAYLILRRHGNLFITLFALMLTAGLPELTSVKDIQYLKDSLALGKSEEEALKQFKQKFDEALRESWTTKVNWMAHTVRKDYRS
T1 sequence (P27986 whole entry partner): as the sequence (P27986 whole entry partner) above
T3 sequence (P48736 whole entry): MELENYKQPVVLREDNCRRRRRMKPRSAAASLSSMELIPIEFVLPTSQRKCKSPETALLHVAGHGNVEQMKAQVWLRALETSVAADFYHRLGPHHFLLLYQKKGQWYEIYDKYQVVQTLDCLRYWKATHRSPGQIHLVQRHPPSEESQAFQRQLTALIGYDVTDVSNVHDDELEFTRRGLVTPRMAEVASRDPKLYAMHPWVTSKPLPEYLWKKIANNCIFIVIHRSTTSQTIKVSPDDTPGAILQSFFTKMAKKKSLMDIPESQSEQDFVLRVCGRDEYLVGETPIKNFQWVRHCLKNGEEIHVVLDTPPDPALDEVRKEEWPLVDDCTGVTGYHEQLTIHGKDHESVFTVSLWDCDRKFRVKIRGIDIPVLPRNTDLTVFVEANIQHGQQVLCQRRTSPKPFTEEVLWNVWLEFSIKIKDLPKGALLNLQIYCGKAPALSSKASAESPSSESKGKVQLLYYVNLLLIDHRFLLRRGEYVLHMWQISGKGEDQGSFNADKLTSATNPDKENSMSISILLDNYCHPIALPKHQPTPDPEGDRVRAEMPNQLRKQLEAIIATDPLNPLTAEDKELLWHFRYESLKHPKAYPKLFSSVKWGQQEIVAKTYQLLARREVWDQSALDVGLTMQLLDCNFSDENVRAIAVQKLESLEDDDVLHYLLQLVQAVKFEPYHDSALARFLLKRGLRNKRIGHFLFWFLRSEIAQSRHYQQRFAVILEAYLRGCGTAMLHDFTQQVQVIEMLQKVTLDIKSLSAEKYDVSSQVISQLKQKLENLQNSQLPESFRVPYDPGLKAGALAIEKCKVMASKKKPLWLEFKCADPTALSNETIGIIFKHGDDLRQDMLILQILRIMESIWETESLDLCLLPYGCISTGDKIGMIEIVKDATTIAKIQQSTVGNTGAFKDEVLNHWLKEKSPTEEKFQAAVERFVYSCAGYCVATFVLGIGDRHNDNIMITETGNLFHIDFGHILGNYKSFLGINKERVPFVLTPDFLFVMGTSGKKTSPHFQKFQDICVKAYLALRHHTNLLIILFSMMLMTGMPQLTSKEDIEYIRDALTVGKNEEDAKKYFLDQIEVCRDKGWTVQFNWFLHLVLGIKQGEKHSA

Regarding `N#Cc1c(N)nc(N)nc1N1CCC[C@H]1c1nc2cccc(Cl)c2c(=O)n1-c1cc[nH]n1` [Compound 24, (S)-2,4-diamino-6-(2-(5-chloro-4-oxo-3-(1H-pyrazol-3-yl)-3,4-dihydroquinazolin-2-yl)pyrrolidin-1-yl)pyrimidine-5-carbonitrile], the IC50 – broadly, the midpoint of a concentration-inhibition curve – on PI3Kβ worked out at 22 nM; at PI3Kδ it was 4 nM; on PI3Kγ (setting [1]), 780 nM.
In the same order, the values of `O=c1c2c(Cl)cccc2nc([C@@H](Nc2ncnc3scnc23)C2CC2)n1-c1cn[nH]c1` [Compound 25, (S)-5-chloro-2-(cyclopropyl(thiazolo[5,4-d]pyrimidin-7-ylamino)methyl)-3-(1H-pyrazol-4-yl)quinazolin-4(3H)-one] are 5 nM, 1 nM and 130 nM.
For `O=c1c2c(Cl)cccc2nc([C@@H](Nc2ncnc3scnc23)C2CC2)n1-c1cc[nH]n1` [Compound 26, (S)-5-chloro-2-(cyclopropyl(thiazolo[5,4-d]pyrimidin-7-ylamino)methyl)-3-(1H-pyrazol-3-yl)quinazolin-4(3H)-one] the same measures were 3 nM, 0.6 nM and 1300 nM.
For `Cc1nc(N)nc(N[C@H](c2nc3cccc(Cl)c3c(=O)n2-c2cn[nH]c2)C2CC2)c1C#N` [Compound 27, (S)-2-amino-4-(((5-chloro-4-oxo-3-(1H-pyrazol-4-yl)-3,4-dihydroquinazolin-2-yl)(cyclopropyl)methyl)amino)-6-methylpyrimidine-5-carbonitrile] the same measures were 2 nM, 0.7 nM and 71 nM.
For `N#Cc1c(N)nc(N)nc1N[C@H](c1nc2c(Cl)cccc2c(=O)n1-c1cn[nH]c1)C1CC1` [Compound 29, (S)-2,4-diamino-6-(((8-chloro-4-oxo-3-(1H-pyrazol-4-yl)-3,4-dihydroquinazolin-2-yl)(cyclopropyl)methyl)amino)pyrimidine-5-carbonitrile], the results for the IC50 against PI3Kβ, on PI3Kδ and at PI3Kγ (setting [1]) were 3 nM, 6 nM and 440 nM, respectively.
As to `N#Cc1c(N)nc(N)nc1N[C@H](c1nc2c(Cl)cccc2c(=O)n1-c1cc[nH]n1)C1CC1` [Compound 30, (S)-2,4-diamino-6-(((8-chloro-4-oxo-3-(1H-pyrazol-3-yl)-3,4-dihydroquinazolin-2-yl)(cyclopropyl)methyl)amino)pyrimidine-5-carbonitrile], the IC50 is 2 nM against PI3Kβ, 3 nM at PI3Kδ and 1300 nM at PI3Kγ (setting [1]).
For `N#Cc1c(N)nc(N)nc1N[C@H](c1nc2c(Cl)ccc(Cl)c2c(=O)n1-c1cn[nH]c1)C1CC1` [Compound 31, (S)-2,4-diamino-6-((cyclopropyl(5,8-dichloro-4-oxo-3-(1H-pyrazol-4-yl)-3,4-dihydroquinazolin-2-yl)methyl)amino)pyrimidine-5-carbonitrile] the same measures were 1 nM, 1 nM and 160 nM.
In the same order, the values of `N#Cc1c(N)nc(N)nc1N[C@H](c1nc2c(Cl)ccc(Cl)c2c(=O)n1-c1cc[nH]n1)C1CC1` [Compound 32, (S)-2,4-diamino-6-((cyclopropyl(5,8-dichloro-4-oxo-3-(1H-pyrazol-3-yl)-3,4-dihydroquinazolin-2-yl)methyl)amino)pyrimidine-5-carbonitrile] are 1 nM, 1 nM and 600 nM.
In the same order, the values of `CC[C@H](Nc1nc(N)nc(N)c1C#N)c1nc2c(C)cccc2c(=O)n1-c1cn[nH]c1` [Compound 33, (S)-2,4-diamino-6-((1-(8-methyl-4-oxo-3-(1H-pyrazol-4-yl)-3,4-dihydroquinazolin-2-yl)propyl)amino)pyrimidine-5-carbonitrile] are 84 nM, 22 nM and 2000 nM.
As to `CC[C@H](Nc1nc(N)nc(N)c1C#N)c1nc2c(C)cccc2c(=O)n1-c1cc[nH]n1` [Compound 34, (S)-2,4-diamino-6-((1-(8-methyl-4-oxo-3-(1H-pyrazol-3-yl)-3,4-dihydroquinazolin-2-yl)propyl)amino)pyrimidine-5-carbonitrile], the IC50 against PI3Kβ amounted to 7 nM; against PI3Kδ it was 8 nM; at PI3Kγ (setting [1]), 6100 nM.
For `CC[C@H](Nc1nc(N)nc(N)c1C#N)c1nc2c(C)ccc(F)c2c(=O)n1-c1cn[nH]c1` [Compound 35, (S)-2,4-diamino-6-((1-(5-fluoro-8-methyl-4-oxo-3-(1H-pyrazol-4-yl)-3,4-dihydroquinazolin-2-yl)propyl)amino)pyrimidine-5-carbonitrile] the same measures were 21 nM, 10 nM and 1400 nM.
For `CC[C@H](Nc1nc(N)nc(N)c1C#N)c1nc2c(C)ccc(F)c2c(=O)n1-c1cc[nH]n1` [Compound 36, (S)-2,4-diamino-6-((1-(5-fluoro-8-methyl-4-oxo-3-(1H-pyrazol-3-yl)-3,4-dihydroquinazolin-2-yl)propyl)amino)pyrimidine-5-carbonitrile] the same measures were 2 nM, 5 nM and 4100 nM.
For `O=c1c2c(Cl)ccc(Cl)c2nc([C@@H](Nc2ncnc3scnc23)C2CC2)n1-c1cc[nH]n1` [Compound 37, (S)-5,8-dichloro-2-(cyclopropyl(thiazolo[5,4-d]pyrimidin-7-ylamino)methyl)-3-(1H-pyrazol-3-yl)quinazolin-4(3H)-one] the same measures were 1 nM, 0.6 nM and 5100 nM.
As for `O=c1c2c(Cl)ccc(Cl)c2nc([C@@H](Nc2ncnc3scnc23)C2CC2)n1-c1cn[nH]c1` [Compound 38, (S)-5,8-dichloro-2-(cyclopropyl(thiazolo[5,4-d]pyrimidin-7-ylamino)methyl)-3-(1H-pyrazol-4-yl)quinazolin-4(3H)-one], the values for the IC50 at PI3Kβ, against PI3Kδ and on PI3Kγ (setting [1]) were 9 nM, 4 nM and 1100 nM, respectively.
For `CC[C@H](Nc1ncnc2scnc12)c1nc2c(Cl)ccc(Cl)c2c(=O)n1-c1cn[nH]c1` [Compound 39, (S)-5,8-dichloro-3-(1H-pyrazol-4-yl)-2-(1-(thiazolo[5,4-d]pyrimidin-7-ylamino)propyl)quinazolin-4(3H)-one], the IC50 against PI3Kβ is 170 nM; against PI3Kδ it was 22 nM; at PI3Kγ (setting [1]), 4700 nM.
In the same order, the values of `CC[C@H](Nc1ncnn2ccnc12)c1nc2c(Cl)ccc(Cl)c2c(=O)n1-c1cn[nH]c1` [Compound 40, (S)-5,8-dichloro-2-(1-(imidazo[2,1-f][1,2,4]triazin-4-ylamino)propyl)-3-(1H-pyrazol-4-yl)quinazolin-4(3H)-one] are 280 nM, 38 nM and 8700 nM.
For `CC[C@H](Nc1ncnc2cccnc12)c1nc2c(Cl)ccc(Cl)c2c(=O)n1-c1cn[nH]c1` [Compound 41, (S)-5,8-dichloro-3-(1H-pyrazol-4-yl)-2-(1-(pyrido[3,2-d]pyrimidin-4-ylamino)propyl)quinazolin-4(3H)-one] the same measures were 88 nM, 13 nM and 1600 nM.
For `CC[C@H](Nc1ncnc2ccc(Cl)nc12)c1nc2c(Cl)ccc(Cl)c2c(=O)n1-c1cn[nH]c1` [Compound 42, (S)-5,8-dichloro-2-(1-((6-chloropyrido[3,2-d]pyrimidin-4-yl)amino)propyl)-3-(1H-pyrazol-4-yl)quinazolin-4(3H)-one] the same measures were 77 nM, 10 nM and 460 nM.
Regarding `CC[C@H](Nc1ncnn2ccnc12)c1nc2c(Cl)ccc(Cl)c2c(=O)n1-c1cc[nH]n1` [Compound 43, (S)-5,8-dichloro-2-(1-(imidazo[2,1-f][1,2,4]triazin-4-ylamino)propyl)-3-(1H-pyrazol-3-yl)quinazolin-4(3H)-one], the concentration for half-maximal inhibition (IC50) on PI3Kβ was 39 nM; at PI3Kδ, 9 nM; at PI3Kγ it was more than 10000 nM.
As for `CC[C@H](Nc1ncnc2cccnc12)c1nc2c(Cl)ccc(Cl)c2c(=O)n1-c1cc[nH]n1` [Compound 44, (S)-5,8-dichloro-3-(1H-pyrazol-3-yl)-2-(1-(pyrido[3,2-d]pyrimidin-4-ylamino)propyl)quinazolin-4(3H)-one], the results for the IC50 at PI3Kβ, against PI3Kδ and at PI3Kγ were 84 nM, 10 nM and more than 10000 nM, respectively.
`CC[C@H](Nc1ncnc2ccc(Cl)nc12)c1nc2c(Cl)ccc(Cl)c2c(=O)n1-c1cc[nH]n1` [Compound 45, (S)-5,8-dichloro-2-(1-((6-chloropyrido[3,2-d]pyrimidin-4-yl)amino)propyl)-3-(1H-pyrazol-3-yl)quinazolin-4(3H)-one]: the IC50 is 15 nM against PI3Kβ, 4 nM against PI3Kδ and more than 10000 nM at PI3Kγ.
For `CC[C@H](Nc1ncnc2scnc12)c1nc2c(Cl)ccc(Cl)c2c(=O)n1-c1cc[nH]n1` [Compound 46, (S)-5,8-dichloro-3-(1H-pyrazol-3-yl)-2-(1-(thiazolo[5,4-d]pyrimidin-7-ylamino)propyl)quinazolin-4(3H)-one] the same measures were 18 nM, 4 nM and more than 10000 nM.
Regarding `O=c1c2c(Cl)cccc2nc([C@H](COCc2ccccc2)Nc2ncnc3scnc23)n1-c1cn[nH]c1` [Compound 47, (R)-2-(2-(benzyloxy)-1-(thiazolo[5,4-d]pyrimidin-7-ylamino)ethyl)-5-chloro-3-(1H-pyrazol-4-yl)quinazolin-4(3H)-one], the values for the IC50 on PI3Kβ, on PI3Kδ and on PI3Kγ (setting [1]) were 11 nM, 11 nM and 2400 nM, respectively.
For the compound `O=c1c2c(Cl)cccc2nc([C@H](COCc2ccccc2)Nc2ncnc3scnc23)n1-c1cc[nH]n1` [Compound 48, (R)-2-(2-(benzyloxy)-1-(thiazolo[5,4-d]pyrimidin-7-ylamino)ethyl)-5-chloro-3-(1H-pyrazol-3-yl)quinazolin-4(3H)-one], the IC50 was 9 nM at PI3Kβ, 8 nM at PI3Kδ and more than 10000 nM at PI3Kγ.
